In ChEMBL document CHEMBL5537123, “Discovery of triazole tethered thymol/carvacrol-coumarin hybrids as new class of α-glucosidase inhibitors with potent in vivo antihyperglycemic activities” (Eur J Med Chem, 2024):
Calls of active or inactive are those of the source. The rule behind the calls is not given here.

Experiments:
Alpha-amylase = biological target: T1, Alpha-amylase (Sus scrofa domesticus, UniProt Q7M328); assay: Inhibition of porcine pancreatic alpha-amylase using pNPG as substrate preincubated with compound for 20 mins followed by substrate addition measured after 1 hrs by absorbance based analysis
T1 sequence (Q7M328 whole entry): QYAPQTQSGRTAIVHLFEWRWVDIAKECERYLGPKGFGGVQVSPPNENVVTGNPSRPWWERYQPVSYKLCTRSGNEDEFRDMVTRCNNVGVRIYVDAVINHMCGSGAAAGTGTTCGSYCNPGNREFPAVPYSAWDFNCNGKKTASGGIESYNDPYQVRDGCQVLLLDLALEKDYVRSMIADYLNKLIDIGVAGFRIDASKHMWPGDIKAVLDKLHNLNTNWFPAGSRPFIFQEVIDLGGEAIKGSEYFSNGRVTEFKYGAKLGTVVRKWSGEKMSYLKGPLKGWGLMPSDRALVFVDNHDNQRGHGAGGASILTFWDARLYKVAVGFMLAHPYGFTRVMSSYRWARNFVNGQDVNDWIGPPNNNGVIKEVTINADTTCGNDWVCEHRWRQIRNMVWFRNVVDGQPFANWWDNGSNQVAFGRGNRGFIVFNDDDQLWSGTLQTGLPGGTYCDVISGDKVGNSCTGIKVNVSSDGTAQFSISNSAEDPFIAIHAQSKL

Alpha-glucosidase [1] = biological target: T2, Alpha-glucosidase (Saccharomyces cerevisiae S288c, UniProt P53341+P38158+P07265); assay: Inhibition of Saccharomyces cerevisiae alpha-glucosidase using pNPG as substrate preincubated with compound for 20 mins followed by substrate addition measured after 1 hrs by absorbance based analysis; assay type: protein assay
[2] = Acute toxicity in Wistar rat assessed as mortality rate at 300 mg/kg, po measured for 14 days; assay type: organism-based; settings: in vivo, time 14 day, read-out: Activity
[3] = Acute toxicity in Wistar rat assessed as lethal dose measured for 14 days; settings: in vivo, time 14 day
Rattus norvegicus [4] = assay: Hypoglycemic activity in streptozotocin-induced diabetic Wistar rat model assessed as reduction in fasting blood glucose level at 20 mg/kg, po measured every 7 days for 28 days relative to control; assay type: functional; design: scale not given: the % may be the effect or the level left; settings: time 7 day
Rattus norvegicus [5] = assay: Hypoglycemic activity in streptozotocin-induced diabetic Wistar rat model assessed as decrease in blood glucose level at 5 mg/kg, po administered for 5 days and measured after 1 hr by sucrose loading test relative to control; assay type: functional; design: scale not given: the % may be the effect or the level left; settings: time 121 hrs
Rattus norvegicus [6] = assay: Hypoglycemic activity in streptozotocin-induced diabetic Wistar rat model assessed as decrease in blood glucose level at 10 mg/kg, po administered for 5 days and measured after 1 hr by maltose loading test relative to control; assay type: functional; design: scale not given: the % may be the effect or the level left; settings: time 121 hrs
[7] = Acute toxicity in Wistar rat assessed as change in salivation at 300 mg/kg, po measured for 14 days; assay type: organism-based; settings: in vivo, 336 h, time 14 day
[8] = Selectivity index, ratio of IC50 for inhibition of porcine pancreatic alpha-amylase using pNPG as substrate to IC50 for inhibition of Saccharomyces cerevisiae alpha-glucosidase using pNPG as substrate
Rattus norvegicus [9] = assay: Hypoglycemic activity in streptozotocin-induced diabetic Wistar rat model assessed as decrease in blood glucose level at 5 to 20 mg/kg, po administered for 5 days and measured after 30 mins by glucometer analysis; assay type: functional, organism-based; settings: dose 5-20 mg/kg, time 7230.0 min
[10] = Cytotoxicity against mouse L929 cells assessed reduction in cell viability incubated for 24 hrs by MTT assay; assay type: toxicity, cell-based
Rattus norvegicus [11] = assay: Hypoglycemic activity in streptozotocin-induced diabetic Wistar rat model assessed as decrease in blood glucose level at 5 mg/kg, po administered for 5 days and measured after 1 hr by maltose loading test relative to control; assay type: functional; design: scale not given: the % may be the effect or the level left; settings: time 121 hrs
[12] = Acute toxicity in Wistar rat assessed as change in salivation at 50 mg/kg, po measured for 14 days; assay type: organism-based; settings: in vivo, 336 h, time 14 day
Alpha-glucosidase [13] = biological target: T2, Alpha-glucosidase; assay: Mixed type inhibition of Saccharomyces cerevisiae alpha-glucosidase using pNPG as substrate assessed as inhibition constant preincubated for 20 mins followed by substrate addition measured after 1 hrs by Lineweaver-burk plot analysis; assay type: protein assay
[14] = Toxicity in Wistar rat assessed as effect on body weight at 20 mg/kg, po measured for 28 days; assay type: organism-based; settings: in vivo, 672 h, time 28 day
Rattus norvegicus [15] = assay: Hypoglycemic activity in streptozotocin-induced diabetic Wistar rat model assessed as reduction in fasting blood glucose level at 10 mg/kg, po measured every 7 days for 28 days relative to control; assay type: functional; design: scale not given: the % may be the effect or the level left; settings: time 7 day
Rattus norvegicus [16] = assay: Hypoglycemic activity in streptozotocin-induced diabetic Wistar rat model assessed as decrease in blood glucose level at 20 mg/kg, po administered for 5 days and measured after 1 hr by sucrose loading test relative to control; assay type: functional; design: scale not given: the % may be the effect or the level left; settings: time 121 hrs
Rattus norvegicus [17] = assay: Hypoglycemic activity in streptozotocin-induced diabetic Wistar rat model assessed as decrease in blood glucose level at 10 mg/kg, po administered for 5 days and measured after 1 hr by sucrose loading test relative to control; assay type: functional; design: scale not given: the % may be the effect or the level left; settings: time 121 hrs
Rattus norvegicus [18] = assay: Hypoglycemic activity in streptozotocin-induced diabetic Wistar rat model assessed as decrease in blood glucose level at 20 mg/kg, po administered for 5 days and measured after 1 hr by maltose loading test relative to control; assay type: functional; design: scale not given: the % may be the effect or the level left; settings: time 121 hrs
[19] = Acute toxicity in Wistar rat assessed as change in salivation at 5 mg/kg, po measured for 14 days; assay type: organism-based; settings: in vivo, 336 h, time 14 day
Origanum vulgare = assay: Inhibition of Origanum vulgare alpha-glucosidase at 18 microg/ml relative to control; settings: dose 18.0 µg/ml
[20] = Inhibition of alpha-glucosidase (unknown origin); design: species or system Homo sapiens

Row | IC50 (Alpha-amylase) | IC50 (Alpha-glucosidase [1]) | Compound | other results
1 | > 100 µM | 68.51 µM | Cc1ccc(C(C)C)cc1OCc1cn(CCCOc2cc(=O)oc3ccccc23)nn1 | 
2 | 69.3 µM | 9.23 µM | Cc1ccc(C(C)C)cc1OCc1cn(CCCCCCOc2cc(=O)oc3ccccc23)nn1 | Ratio IC50 [8]: 7.51; IC50 at 24 h [10]: > 100 µM
3 | > 100 µM | > 100 µM | Cc1ccc(C(C)C)c(OCc2cn(CCCCCCOc3ccc4ccc(=O)oc4c3)nn2)c1 | 
4 |  |  | Cc1ccc(C(C)C)c(OS(=O)(=O)c2ccc(F)cc2)c1 | inhibition (Origanum vulgare): 57.7%; IC50 [20]: 2300 nM
5 | 77.5 µM | 25.36 µM | Cc1ccc(C(C)C)c(OCc2cn(CCCCOc3cc(=O)oc4ccccc34)nn2)c1 | Ratio IC50 [8]: 3.06
6 | > 100 µM | > 100 µM | Cc1ccc(C(C)C)cc1OCc1cn(CCCCCOc2ccc3ccc(=O)oc3c2)nn1 | 
7 | > 100 µM | 72.91 µM | Cc1ccc(C(C)C)c(OCc2cn(CCCOc3ccc4ccc(=O)oc4c3)nn2)c1 | 
8 | > 100 µM | 56.41 µM | Cc1ccc(C(C)C)c(OCc2cn(CCOc3ccc4ccc(=O)oc4c3)nn2)c1 | 
9 | > 100 µM | > 100 µM | Cc1ccc(C(C)C)c(OCc2cn(CCCCOc3ccc4ccc(=O)oc4c3)nn2)c1 | 
10 | > 100 µM | 61.24 µM | Cc1ccc(C(C)C)c(OCc2cn(CCOc3cc(=O)oc4ccccc34)nn2)c1 | 
11 | > 100 µM | > 100 µM | Cc1ccc(C(C)C)cc1OCc1cn(CCCCOc2ccc3ccc(=O)oc3c2)nn1 | 
12 | > 100 µM | > 100 µM | Cc1ccc(C(C)C)cc1OCc1cn(CCCOc2ccc3ccc(=O)oc3c2)nn1 | 
13 |  |  | Cc1ccc(CNC(=O)Cn2cc(COc3cc(=O)oc4ccccc34)nn2)cc1 | IC50 [20]: 3500 nM
14 | > 100 µM | 26.48 µM | Cc1ccc(C(C)C)cc1OCc1cn(CCCCOc2cc(=O)oc3ccccc23)nn1 | 
15 |  |  | O=C(Cn1cc(COc2ccc3ccc(=O)oc3c2)nn1)NCc1cccc(Br)c1 | IC50 [20]: 543 nM
16 | > 100 µM | 16.32 µM | Cc1ccc(C(C)C)c(OCc2cn(CCCCCCOc3cc(=O)oc4ccccc34)nn2)c1 | 
17 | > 100 µM | > 100 µM | Cc1ccc(C(C)C)cc1OCc1cn(CCCCCCOc2ccc3ccc(=O)oc3c2)nn1 | 
18 | 57.3 µM | 7.53 µM | Cc1ccc(C(C)C)c(OCc2cn(CCCCCOc3cc(=O)oc4ccccc34)nn2)c1 | Ratio IC50 [8]: 7.61; IC50 at 24 h [10]: > 100 µM
19 | > 100 µM | 64.21 µM | Cc1ccc(C(C)C)cc1OCc1cn(CCOc2ccc3ccc(=O)oc3c2)nn1 | 
20 | > 100 µM | > 100 µM | Cc1ccc(C(C)C)c(OCc2cn(CCCCCOc3ccc4ccc(=O)oc4c3)nn2)c1 | 
21 |  |  | Cc1ccc(C(C)C)cc1OS(=O)(=O)c1ccc(F)cc1 | inhibition (Origanum vulgare): 57.7%; IC50 [20]: 2560 nM
22 | > 100 µM | 37.59 µM | Cc1ccc(C(C)C)c(OCc2cn(CCCOc3cc(=O)oc4ccccc34)nn2)c1 | 
23 |  |  | C[C@H]1O[C@H](O[C@H]2[C@H](O)[C@@H](O)[C@@H](O[C@H]3[C@H](O)[C@@H](O)C(O)O[C@@H]3CO)O[C@@H]2CO)[C@H](O)[C@@H](O)[C@@H]1N[C@H]1C=C(CO)[C@@H](O)[C@H](O)[C@H]1O (some centres not stated) [ACARBOSE] | Activity (Rattus norvegicus [6]): 53.01%; Activity (Rattus norvegicus [15]): 25.86%; Activity (Rattus norvegicus [17]): 56.31%
24 | > 100 µM | 78.69 µM | Cc1ccc(C(C)C)cc1OCc1cn(CCOc2cc(=O)oc3ccccc23)nn1 | 

Row | Compound | IC50 (Alpha-amylase) | IC50 (Alpha-glucosidase [1]) | other results
25 | Cc1ccc(C(C)C)cc1OCc1cn(CCCCCOc2cc(=O)oc3ccccc23)nn1 | 37.4 µM | 4.32 µM | mortality at 336 h [2]: 67%; LD50 at 336 h [3]: 300 mg/kg; Activity (Rattus norvegicus [4]): 62.23%; Activity (Rattus norvegicus [5]): 25.24%; Activity (Rattus norvegicus [6]): 62.65%; Activity [7]: Non-Toxic; Ratio IC50 [8]: 8.65; Activity (Rattus norvegicus [9]): Active; IC50 at 24 h [10]: > 100 µM; Activity (Rattus norvegicus [11]): 28.91%; Activity [12]: Non-Toxic; Ki (Alpha-glucosidase [13]): 0.832 µM; Activity [14]: Non-Toxic; Activity (Rattus norvegicus [15]): 54.69%; Activity (Rattus norvegicus [16]): 60.23%; Activity (Rattus norvegicus [17]): 59.65%; Activity (Rattus norvegicus [18]): 70.12%; Activity [19]: Non-Toxic
